The results in this text go back to ChEMBL document CHEMBL6083233, “Modified (2'-deoxy)adenosines activate autophagy primarily through AMPK/ULK1-dependent pathway” (2024).

The structures appear in SMILES notation. Active and inactive are the calls of the source. The calls are words filed in the database; no cut-off is given here.

Test [1] can be described thus: Activation of autophagy in human SH-SY5Y cells expressing GFP-LC3-RFP assessed as green-to-red signal ratio at 250 mkM relative to control. Particulars: at 250 µM. The class given is functional.
Test [2] can be described thus: Activation of autophagy in human SH-SY5Y cells expressing GFP-LC3-RFP assessed as green-to-red signal ratio at 25 mkM relative to control. The test is classed as functional. As to conditions: at 25 µM.
A short description of test [3]: Activation of autophagy in human SH-SY5Y cells expressing GFP-LC3-RFP assessed as green-to-red signal ratio at 2.5 mkM relative to control. The class given is functional. As to conditions: at 2.5 µM.
In test [4] the test system is SH-SY5Y. Kind of test: Activation of autophagy in human SH-SY5Y cells expressing GFP-LC3-RFP assessed as increase in LC3-II level at 250 mkM by Western blot analysis. The test is classed as functional, cell-based.
Test [5] relates to SH-SY5Y. Kind of test: Activation of autophagy in human SH-SY5Y cells expressing GFP-LC3-RFP assessed as increase in LC3-II level at 25 to 250 mkM by Western blot analysis. The class given is functional, cell-based. Particulars: dose 25-250 mkM.
Test [6] concerns SH-SY5Y. Briefly: Activation of mitophagy in human SH-SY5Y cells expressing GFP-LC3-RFP assessed as increase in phospho-ubiquitin level at 25 to 250 mkM by Western blot analysis. The class given is functional, cell-based. Particulars: dose 25-250 mkM.
Test [7] concerns SH-SY5Y. Kind of test: Effect on AKT phosphorylation at T308 in human SH-SY5Y cells expressing GFP-LC3-RFP at 25 to 250 mkM by Western blot analysis. The class given is functional, cell-based. Particulars: dose 25-250 mkM.
Test [8] relates to SH-SY5Y. Briefly: Effect on TSC2 phosphorylation in human SH-SY5Y cells expressing GFP-LC3-RFP at 25 to 250 mkM by Western blot analysis. The test is classed as functional, cell-based. As to conditions: dose 25-250 mkM.
For test [9], the system named is SH-SY5Y. Kind of test: Activation of autophagy in human SH-SY5Y cells expressing GFP-LC3-RFP assessed as increase in AMPK phosphorylation by Western blot analysis. The class given is functional, cell-based. Particulars: dose 25-250 mkM.
The subject of test [10] is SH-SY5Y. Briefly: Activation of autophagy in human SH-SY5Y cells expressing GFP-LC3-RFP assessed as increase in ULK1 phosphorylation at S555 at 25 to 250 mkM by Western blot analysis. The class given is functional, cell-based. As to conditions: dose 25-250 mkM.
For test [11], the system named is SH-SY5Y. Briefly: Activation of autophagy in human SH-SY5Y cells expressing GFP-LC3-RFP assessed as increase in Beclin-1 level at 25 to 250 mkM by Western blot analysis. Particulars: dose 25-250 mkM. The class given is functional, cell-based.
For test [12], the system named is SH-SY5Y. Kind of test: Activation of autophagy in human SH-SY5Y cells expressing SIRT1-/-/GFP-LC3-RFP assessed as increase in green-to-red signal ratio at 25 to 250 mkM. The test is classed as functional, cell-based. Particulars: dose 25-250 mkM.
Test [13] concerns SH-SY5Y. Kind of test: Activation of autophagy in human SH-SY5Y cells expressing AMPK-/-/GFP-LC3-RFP assessed as increase in green-to-red signal ratio at 25 to 250 mkM. The test is classed as functional, cell-based. As to conditions: dose 25-250 mkM.
Test [14] relates to SH-SY5Y. Briefly: Activation of autophagy in human SH-SY5Y cells expressing GFP-LC3-RFP assessed as increase in AMPK phosphorylation at 25 to 250 mkM by Western blot analysis. The class given is functional, cell-based. Particulars: dose 25-250 mkM.
In test [15] the test system is SH-SY5Y. Briefly: Downregulation of ULK phosphorylation at S757 in human SH-SY5Y cells expressing GFP-LC3-RFP at 25 to 250 mkM by Western blot analysis. The test is classed as functional, cell-based. Particulars: dose 25-250 mkM.
Test [16] concerns SH-SY5Y. Kind of test: Downregulation of 4E-BP1 phosphorylation in human SH-SY5Y cells expressing GFP-LC3-RFP at 25 to 250 mkM by Western blot analysis. As to conditions: dose 25-250 mkM. The test is classed as functional, cell-based.

For the compound `CNc1ncnc2c1ncn2[C@@H]1O[C@H](CO)[C@@H](O)[C@H]1O`, the Ratio in test [1] was 3.36%; in test [2], -1.43%; in test [3] it was -1.2%. In test [4], the result was Active. Further, in [5], the Activity result was “Not active; Exhibited Weakest Activity Among Tested Compounds”.
Consider `Nc1ncnc2c1[nH]c(=O)n2[C@@H]1O[C@H](CO)[C@@H](O)[C@H]1O`, for which the Ratio in [1] turned out to be 5.71%; in test [2], 3.62%; in test [3], 1.31%. For the same compound, the Activity entry in [5] was “Active; Exhibited Moderate Activity”; in test [9], “Dose-dependent-effect”. Besides, the result in test [6] and in [8] was inactive. Moreover, the result in test [7], in [10], in [11], in test [12] and in [13] was Active.
Regarding `Nc1nc2c([nH]c(=O)n2[C@H]2C[C@H](O)[C@@H](CO)O2)c(=O)[nH]1`, the results for the Ratio in test [1], in test [2] and in [3] were 1.94%, 1.51% and -0.68%, respectively.
Taken in the same sequence, the figures for `O=c1[nH]c2c(ncn3ccnc23)n1[C@@H]1O[C@H](CO)[C@@H](O)[C@H]1O` were -0.79%, -1.76% and -1.32%.
`CCC(CC)COC(=O)[C@@H](C)N[P@](=O)(OC[C@H]1O[C@@H](n2cnc3c(NC)ncnc32)[C@H](O)[C@@H]1O)Oc1ccccc1`: the results for the Ratio in test [1], in test [2] and in test [3] were 7.26%, 0.44% and -3.79%, respectively. Moreover, the Activity result in [5] is recorded as “Active; Exhibited Higher Activity Compared To Parent Compound”; in [15], “Active; Result Provides Indirect Evidence Of Mtor Inhibition”; in test [16], “Active; Result Provides Indirect Evidence Of Mtor Inhibition”. For the same compound, the outcome in [6] and in test [7] was inactive. Also, the outcome in [14], in [10], in test [12] and in test [13] was Active.
Consider `Nc1ncnc2c1[nH]c(=O)n2COCCO`, for which the Ratio is recorded as 2.59% in test [1], -2.79% in [2] and -0.47% in test [3]. In [4], the result was Active. The Activity entry in [5] is “Not active; Exhibited Weakest Activity Among Tested Compounds”.
Regarding `Nc1ncnc2c1[nH]c(=O)n2[C@H]1C[C@H](O)[C@@H](CO)O1`, the Ratio is on record as 5.41% in [1], 1.85% in test [2] and 1.85% in [3]. The figures for the Activity result in test [5] and in [9] were “Active; Exhibited Moderate Activity” and “Dose-dependent-effect”, respectively. Moreover, the outcome in test [6] and in test [8] was inactive. The result in test [7], in test [10], in test [11], in test [12] and in [13] was Active.
`Nc1ncnc2c1nc(Br)n2COCCO`: the figures for the Ratio in test [1], in test [2] and in test [3] were -0.4%, 1.28% and 1.31%, respectively.
Taken in the same sequence, the figures for `Nc1ncnc2c1nc(Br)n2[C@H]1C[C@H](O)[C@@H](CO)O1` were 0.2%, 3.16% and 1.78%.
